Data taken from article PMC9639651, “8-Aminoinosine and 8-Aminohypoxanthine Inhibit Purine Nucleoside Phosphorylase and Exert Diuretic and Natriuretic Activity” (The Journal of Pharmacology and Experimental Therapeutics, 2022).

Assays:
[1] = biological target: T1, recombinant human purine nucleoside phosphorylase (rhPNPase) (Homo sapiens, UniProt P00491); experiment: biochemical
T1 construct: gene PNP
T1 sequence (P00491 1-289): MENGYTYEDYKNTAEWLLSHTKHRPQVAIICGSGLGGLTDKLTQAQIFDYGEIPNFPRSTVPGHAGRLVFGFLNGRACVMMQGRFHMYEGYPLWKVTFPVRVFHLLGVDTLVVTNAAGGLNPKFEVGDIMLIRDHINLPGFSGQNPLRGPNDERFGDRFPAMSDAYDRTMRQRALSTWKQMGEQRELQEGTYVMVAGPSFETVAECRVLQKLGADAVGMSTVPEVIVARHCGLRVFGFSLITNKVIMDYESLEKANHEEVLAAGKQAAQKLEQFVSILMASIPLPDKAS

[2] = biological target: T1, recombinant human purine nucleoside phosphorylase (rhPNPase); experiment: HPLC-UV enzyme kinetics, guanosine as substrate (Ki […] with inosine), competitive inhibition fit; assay type: biochemical
[3] = biological target: T1, recombinant human purine nucleoside phosphorylase (rhPNPase); experiment: HPLC-UV enzyme kinetics, competitive inhibition of inosine metabolism; also Michaelis-Menten turnover to 8-aminohypoxanthine; assay type: biochemical
[4] = biological target: T1, recombinant human purine nucleoside phosphorylase (rhPNPase); experiment: Michaelis-Menten kinetics by HPLC-UV; also inhibits metabolism of 8-aminoinosine; assay type: biochemical

With `Nc1nc2[nH]c(N)nc2c(=O)[nH]1` [8AG, 8-aminoguanine] the Ki [1] was 2.8 µM.
Work on `Nc1nc2nc[nH]c(=O)c2[nH]1` [8AHX, 8-aminohypoxanthine] yielded a Ki [2] of 20 µM.
In the case of `Nc1nc2c(O)ncnc2n1[C@@H]1O[C@H](CO)[C@@H](O)[C@H]1O` [8AI, 8-aminoinosine], the Ki [3] is reported as 35 µM.
`O=c1[nH]cnc2c1ncn2[C@@H]1O[C@H](CO)[C@@H](O)[C@H]1O` [inosine] was tested, and the “Michaelis-Menten kinetics by HPLC-UV; also inhibits metabolism of 8-aminoinosine” value [4] was “inosine competitively inhibits the metabolism of 8-aminoinosine to 8-aminohypoxanthine”.
